What all share (experiment): Kinase panel profiling at 1 µmol/L (mobility shift assay, Carna)
Common to all, as to type: biochemical
Holding throughout (conditions): 1 µmol/L of BTK inhibitor

For one assay, the target named is T1, FRK (Homo sapiens, UniProt P42685).
T1 construct: purchased Carna Biosciences

The target in a further assay is T2, JAK2 (Homo sapiens, UniProt O60674).
T2 construct: purchased Carna Biosciences

For the next assay, the target named is T3, ARG (Homo sapiens, UniProt P42684).
T3 construct: purchased Carna Biosciences

The target in a further assay is T4, CaMK2δ (Homo sapiens, UniProt Q13557).
T4 construct: purchased Carna Biosciences

The target of the next assay is T5, HIPK1 (Homo sapiens, UniProt Q86Z02).
T5 construct: purchased Carna Biosciences

The next assay deals with T6, MNK1 (Homo sapiens, UniProt Q9BUB5).
T6 construct: purchased Carna Biosciences

A further assay concerns the target T7, NEK1 (Homo sapiens, UniProt Q96PY6).
T7 construct: purchased Carna Biosciences
T7 sequence (Q96PY6 1-1258): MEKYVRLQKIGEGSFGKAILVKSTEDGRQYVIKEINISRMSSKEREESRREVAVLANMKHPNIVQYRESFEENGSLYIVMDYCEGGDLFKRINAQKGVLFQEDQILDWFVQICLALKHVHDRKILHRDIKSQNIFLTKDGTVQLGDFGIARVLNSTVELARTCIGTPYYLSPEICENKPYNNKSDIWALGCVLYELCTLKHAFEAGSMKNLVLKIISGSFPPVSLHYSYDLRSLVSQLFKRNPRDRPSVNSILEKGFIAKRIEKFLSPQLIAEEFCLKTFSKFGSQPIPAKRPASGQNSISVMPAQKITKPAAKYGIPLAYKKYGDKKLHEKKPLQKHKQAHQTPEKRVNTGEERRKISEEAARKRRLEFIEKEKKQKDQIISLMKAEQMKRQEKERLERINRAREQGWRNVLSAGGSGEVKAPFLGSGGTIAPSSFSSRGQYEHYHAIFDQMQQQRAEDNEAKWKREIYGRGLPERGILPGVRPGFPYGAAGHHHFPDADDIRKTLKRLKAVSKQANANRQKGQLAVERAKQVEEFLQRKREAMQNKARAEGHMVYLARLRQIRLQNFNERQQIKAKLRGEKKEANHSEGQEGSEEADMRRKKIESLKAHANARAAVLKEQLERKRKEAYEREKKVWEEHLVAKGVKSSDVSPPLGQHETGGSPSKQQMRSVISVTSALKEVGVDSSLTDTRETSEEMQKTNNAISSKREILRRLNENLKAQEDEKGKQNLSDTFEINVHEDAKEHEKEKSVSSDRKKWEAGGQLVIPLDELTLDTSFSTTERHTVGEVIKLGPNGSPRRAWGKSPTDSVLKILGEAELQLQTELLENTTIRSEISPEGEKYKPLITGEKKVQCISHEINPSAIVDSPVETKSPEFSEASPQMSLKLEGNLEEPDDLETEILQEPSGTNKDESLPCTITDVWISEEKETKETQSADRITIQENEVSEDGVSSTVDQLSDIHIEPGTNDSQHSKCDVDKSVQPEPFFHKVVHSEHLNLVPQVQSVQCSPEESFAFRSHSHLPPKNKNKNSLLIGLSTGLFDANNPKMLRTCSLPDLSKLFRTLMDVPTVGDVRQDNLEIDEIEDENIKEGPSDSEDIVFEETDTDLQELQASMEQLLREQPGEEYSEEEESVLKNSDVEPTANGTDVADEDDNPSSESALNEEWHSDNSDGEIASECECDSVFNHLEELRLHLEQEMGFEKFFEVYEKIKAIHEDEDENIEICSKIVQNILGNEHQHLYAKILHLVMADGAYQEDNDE

In a further assay the target is T8, PKN1 (Homo sapiens, UniProt Q16512).
T8 construct: purchased Carna Biosciences

The target in a further assay is T9, SRPK2 (Homo sapiens, UniProt P78362).
T9 construct: purchased Carna Biosciences

The next assay concerns the target T10, TAOK2 (Homo sapiens, UniProt Q9UL54).
T10 construct: purchased Carna Biosciences
T10 sequence (Q9UL54 1-1235): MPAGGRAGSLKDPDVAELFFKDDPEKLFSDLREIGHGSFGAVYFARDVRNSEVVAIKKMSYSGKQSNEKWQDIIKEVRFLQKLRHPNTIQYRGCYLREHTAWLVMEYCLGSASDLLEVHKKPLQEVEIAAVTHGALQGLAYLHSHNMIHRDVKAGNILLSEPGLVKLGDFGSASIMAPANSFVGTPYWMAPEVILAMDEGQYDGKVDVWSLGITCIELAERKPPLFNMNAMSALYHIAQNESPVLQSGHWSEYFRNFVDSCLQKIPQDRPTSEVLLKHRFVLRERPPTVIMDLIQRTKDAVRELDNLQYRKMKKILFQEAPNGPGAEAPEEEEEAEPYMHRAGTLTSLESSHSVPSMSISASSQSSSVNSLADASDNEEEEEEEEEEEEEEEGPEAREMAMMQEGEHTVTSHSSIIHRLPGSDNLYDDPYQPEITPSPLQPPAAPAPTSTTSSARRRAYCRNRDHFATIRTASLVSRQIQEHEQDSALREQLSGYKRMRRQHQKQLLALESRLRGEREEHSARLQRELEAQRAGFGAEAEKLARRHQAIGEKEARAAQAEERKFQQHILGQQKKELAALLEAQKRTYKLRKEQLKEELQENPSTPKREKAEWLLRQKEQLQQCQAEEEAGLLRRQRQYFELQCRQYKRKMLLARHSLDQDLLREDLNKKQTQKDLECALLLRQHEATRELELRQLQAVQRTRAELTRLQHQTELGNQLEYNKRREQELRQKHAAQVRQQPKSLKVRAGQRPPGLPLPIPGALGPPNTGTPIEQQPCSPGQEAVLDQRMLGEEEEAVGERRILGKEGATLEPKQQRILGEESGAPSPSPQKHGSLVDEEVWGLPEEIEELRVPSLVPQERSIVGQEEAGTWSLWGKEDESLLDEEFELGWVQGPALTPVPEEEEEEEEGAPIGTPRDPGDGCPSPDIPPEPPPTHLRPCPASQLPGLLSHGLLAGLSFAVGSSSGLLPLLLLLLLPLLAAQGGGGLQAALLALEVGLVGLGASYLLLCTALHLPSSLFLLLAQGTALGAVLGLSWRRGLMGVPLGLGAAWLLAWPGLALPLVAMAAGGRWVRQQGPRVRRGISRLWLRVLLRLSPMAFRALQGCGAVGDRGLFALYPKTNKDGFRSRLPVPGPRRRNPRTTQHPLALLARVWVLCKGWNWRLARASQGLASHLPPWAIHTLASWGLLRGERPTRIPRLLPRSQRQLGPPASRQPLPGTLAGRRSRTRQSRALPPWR

In a further assay the target is T11, TNIK (Homo sapiens, UniProt Q9UKE5).
T11 construct: purchased Carna Biosciences

T5 sequence (Q86Z02 whole entry): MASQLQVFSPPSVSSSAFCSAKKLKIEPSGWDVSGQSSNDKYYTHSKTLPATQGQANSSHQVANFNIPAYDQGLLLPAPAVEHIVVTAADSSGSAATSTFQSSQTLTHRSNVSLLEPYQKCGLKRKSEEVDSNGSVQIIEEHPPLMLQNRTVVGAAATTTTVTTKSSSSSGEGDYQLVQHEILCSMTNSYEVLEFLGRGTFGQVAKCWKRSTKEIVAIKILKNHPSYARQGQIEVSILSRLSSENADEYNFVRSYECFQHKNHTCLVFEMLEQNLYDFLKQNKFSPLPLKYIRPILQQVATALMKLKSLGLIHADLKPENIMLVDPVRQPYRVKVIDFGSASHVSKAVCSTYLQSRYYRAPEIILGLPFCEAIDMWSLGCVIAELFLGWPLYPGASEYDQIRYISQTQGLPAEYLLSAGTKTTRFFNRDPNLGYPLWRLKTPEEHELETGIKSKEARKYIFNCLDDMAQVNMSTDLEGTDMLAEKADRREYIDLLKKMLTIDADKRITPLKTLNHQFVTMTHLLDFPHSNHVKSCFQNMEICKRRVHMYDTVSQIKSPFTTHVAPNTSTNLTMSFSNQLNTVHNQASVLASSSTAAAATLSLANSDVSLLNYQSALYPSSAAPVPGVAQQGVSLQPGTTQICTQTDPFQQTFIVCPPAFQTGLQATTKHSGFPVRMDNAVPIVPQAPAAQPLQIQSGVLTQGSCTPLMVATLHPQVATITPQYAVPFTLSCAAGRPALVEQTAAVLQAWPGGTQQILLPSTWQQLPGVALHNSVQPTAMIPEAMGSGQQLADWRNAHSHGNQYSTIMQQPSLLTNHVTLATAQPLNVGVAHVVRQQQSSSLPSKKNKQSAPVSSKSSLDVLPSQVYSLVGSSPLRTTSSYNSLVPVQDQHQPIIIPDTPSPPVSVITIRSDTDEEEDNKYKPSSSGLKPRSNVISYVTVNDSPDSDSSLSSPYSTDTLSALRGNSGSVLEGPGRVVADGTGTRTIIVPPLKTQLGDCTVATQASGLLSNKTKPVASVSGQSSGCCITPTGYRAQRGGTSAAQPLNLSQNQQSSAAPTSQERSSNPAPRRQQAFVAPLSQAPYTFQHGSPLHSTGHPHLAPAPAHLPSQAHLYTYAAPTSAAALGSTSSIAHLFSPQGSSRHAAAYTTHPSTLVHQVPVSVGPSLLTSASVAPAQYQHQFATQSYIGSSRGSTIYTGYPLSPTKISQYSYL
T2 sequence (O60674 whole entry): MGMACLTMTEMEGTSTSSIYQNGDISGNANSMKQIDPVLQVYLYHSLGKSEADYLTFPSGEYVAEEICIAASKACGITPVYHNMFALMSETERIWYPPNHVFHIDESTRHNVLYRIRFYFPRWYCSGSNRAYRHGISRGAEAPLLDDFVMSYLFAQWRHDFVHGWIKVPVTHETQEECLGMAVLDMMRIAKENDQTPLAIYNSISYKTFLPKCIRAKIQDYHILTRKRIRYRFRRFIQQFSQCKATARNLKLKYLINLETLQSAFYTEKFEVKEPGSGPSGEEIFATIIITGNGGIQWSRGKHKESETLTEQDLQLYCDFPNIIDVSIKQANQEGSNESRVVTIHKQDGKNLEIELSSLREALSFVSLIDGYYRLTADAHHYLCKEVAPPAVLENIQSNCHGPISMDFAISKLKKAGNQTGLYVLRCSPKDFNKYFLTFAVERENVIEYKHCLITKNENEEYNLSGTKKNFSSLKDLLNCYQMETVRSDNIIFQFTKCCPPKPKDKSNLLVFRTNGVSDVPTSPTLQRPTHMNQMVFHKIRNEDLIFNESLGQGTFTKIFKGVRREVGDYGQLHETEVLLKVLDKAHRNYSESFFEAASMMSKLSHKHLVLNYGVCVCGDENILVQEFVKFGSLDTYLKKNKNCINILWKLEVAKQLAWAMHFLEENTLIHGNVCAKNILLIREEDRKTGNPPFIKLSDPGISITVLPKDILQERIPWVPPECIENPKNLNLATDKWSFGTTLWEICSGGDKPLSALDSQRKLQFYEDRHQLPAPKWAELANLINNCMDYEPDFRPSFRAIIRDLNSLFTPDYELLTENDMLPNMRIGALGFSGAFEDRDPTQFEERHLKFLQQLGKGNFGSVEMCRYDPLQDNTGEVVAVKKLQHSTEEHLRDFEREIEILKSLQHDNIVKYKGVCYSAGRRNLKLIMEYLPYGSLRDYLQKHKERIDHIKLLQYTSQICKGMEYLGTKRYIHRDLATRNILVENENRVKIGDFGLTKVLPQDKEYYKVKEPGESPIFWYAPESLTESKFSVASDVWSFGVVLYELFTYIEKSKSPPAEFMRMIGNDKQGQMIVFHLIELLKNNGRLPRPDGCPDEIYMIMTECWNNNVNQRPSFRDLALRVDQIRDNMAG
T1 sequence (P42685 whole entry): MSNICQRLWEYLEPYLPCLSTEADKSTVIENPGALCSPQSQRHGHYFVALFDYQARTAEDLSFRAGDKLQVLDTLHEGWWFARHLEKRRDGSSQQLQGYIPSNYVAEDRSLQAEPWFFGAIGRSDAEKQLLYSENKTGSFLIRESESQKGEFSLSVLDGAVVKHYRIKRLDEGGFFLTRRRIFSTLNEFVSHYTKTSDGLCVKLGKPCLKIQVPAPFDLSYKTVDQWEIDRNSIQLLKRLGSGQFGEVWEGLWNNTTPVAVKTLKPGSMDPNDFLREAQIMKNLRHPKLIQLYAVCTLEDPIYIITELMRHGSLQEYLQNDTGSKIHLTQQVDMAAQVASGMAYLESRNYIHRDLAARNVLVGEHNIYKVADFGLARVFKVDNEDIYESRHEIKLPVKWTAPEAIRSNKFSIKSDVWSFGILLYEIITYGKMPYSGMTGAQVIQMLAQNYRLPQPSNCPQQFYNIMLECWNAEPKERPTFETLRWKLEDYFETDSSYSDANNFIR
T3 sequence (P42684 whole entry): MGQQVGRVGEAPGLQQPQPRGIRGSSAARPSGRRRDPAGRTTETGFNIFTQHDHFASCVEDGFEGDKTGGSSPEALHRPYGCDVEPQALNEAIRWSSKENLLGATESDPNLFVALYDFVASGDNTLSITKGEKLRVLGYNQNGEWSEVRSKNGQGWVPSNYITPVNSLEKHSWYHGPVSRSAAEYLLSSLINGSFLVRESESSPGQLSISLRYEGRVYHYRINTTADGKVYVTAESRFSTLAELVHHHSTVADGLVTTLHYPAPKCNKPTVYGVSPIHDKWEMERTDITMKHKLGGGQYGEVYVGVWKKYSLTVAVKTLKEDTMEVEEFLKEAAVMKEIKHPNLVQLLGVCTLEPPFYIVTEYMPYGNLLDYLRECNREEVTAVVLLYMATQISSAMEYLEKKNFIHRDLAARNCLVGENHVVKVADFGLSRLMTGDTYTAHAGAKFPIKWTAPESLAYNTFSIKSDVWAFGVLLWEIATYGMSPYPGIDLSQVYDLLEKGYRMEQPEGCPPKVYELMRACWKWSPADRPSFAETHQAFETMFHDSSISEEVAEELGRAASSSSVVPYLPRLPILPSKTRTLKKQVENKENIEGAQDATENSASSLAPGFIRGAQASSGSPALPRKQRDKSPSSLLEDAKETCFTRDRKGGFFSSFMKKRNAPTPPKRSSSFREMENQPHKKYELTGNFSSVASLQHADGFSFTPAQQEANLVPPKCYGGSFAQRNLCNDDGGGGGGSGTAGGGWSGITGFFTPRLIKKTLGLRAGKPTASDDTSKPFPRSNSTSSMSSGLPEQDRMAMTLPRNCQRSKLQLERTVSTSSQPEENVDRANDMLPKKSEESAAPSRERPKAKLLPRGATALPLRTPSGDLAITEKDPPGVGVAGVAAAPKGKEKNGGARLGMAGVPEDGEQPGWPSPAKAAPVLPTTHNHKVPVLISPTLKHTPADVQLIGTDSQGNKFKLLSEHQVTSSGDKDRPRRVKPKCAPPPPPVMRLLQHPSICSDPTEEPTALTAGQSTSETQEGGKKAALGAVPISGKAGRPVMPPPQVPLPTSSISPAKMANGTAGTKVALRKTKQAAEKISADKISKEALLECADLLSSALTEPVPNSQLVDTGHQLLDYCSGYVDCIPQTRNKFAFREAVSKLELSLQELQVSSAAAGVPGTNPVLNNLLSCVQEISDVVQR
T8 sequence (Q16512 whole entry): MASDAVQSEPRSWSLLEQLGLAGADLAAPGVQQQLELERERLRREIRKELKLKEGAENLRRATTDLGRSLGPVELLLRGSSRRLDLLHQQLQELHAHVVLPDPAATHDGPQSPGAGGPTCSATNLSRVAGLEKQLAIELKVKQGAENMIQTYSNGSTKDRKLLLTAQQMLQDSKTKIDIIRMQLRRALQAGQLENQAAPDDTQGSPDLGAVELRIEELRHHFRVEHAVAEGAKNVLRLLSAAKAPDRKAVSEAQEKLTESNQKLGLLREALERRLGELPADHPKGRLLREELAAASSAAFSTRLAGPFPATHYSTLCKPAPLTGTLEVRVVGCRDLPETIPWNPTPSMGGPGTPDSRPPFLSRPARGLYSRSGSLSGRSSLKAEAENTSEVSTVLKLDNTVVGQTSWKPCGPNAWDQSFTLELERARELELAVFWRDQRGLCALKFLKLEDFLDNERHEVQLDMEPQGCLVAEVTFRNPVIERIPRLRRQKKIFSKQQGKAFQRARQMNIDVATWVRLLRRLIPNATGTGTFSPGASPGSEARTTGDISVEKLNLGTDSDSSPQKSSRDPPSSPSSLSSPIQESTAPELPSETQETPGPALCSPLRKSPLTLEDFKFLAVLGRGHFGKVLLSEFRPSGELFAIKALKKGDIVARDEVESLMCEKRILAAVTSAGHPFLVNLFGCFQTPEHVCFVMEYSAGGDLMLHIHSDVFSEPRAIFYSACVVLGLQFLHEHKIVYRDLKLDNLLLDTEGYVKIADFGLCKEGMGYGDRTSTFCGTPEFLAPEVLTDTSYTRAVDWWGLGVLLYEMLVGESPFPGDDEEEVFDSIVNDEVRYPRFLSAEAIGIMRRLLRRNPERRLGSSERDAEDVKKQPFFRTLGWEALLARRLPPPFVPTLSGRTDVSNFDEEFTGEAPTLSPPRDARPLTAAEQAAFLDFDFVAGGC

Take `C=CC(=O)N1CCC([C@@H]2CCNc3c(C(N)=O)c(-c4ccc(Oc5ccccc5)cc4)nn32)CC1` [zanubrutinib]: the “Percentage inhibition of kinase enzyme activity” value (from here on “Percentage inhibition”) at FRK came out at 31.32%; on JAK2 it was 9.66%.
`CC#CC(=O)N1CCC[C@H]1c1nc(-c2ccc(C(=O)Nc3ccccn3)cc2)c2c(N)nccn12` [acalabrutinib]: the “Percentage inhibition” value at ARG is on record as 3.53%; at FRK, 47.48%; at JAK2, -9.14%; at CaMK2δ it was -3.53%; at HIPK1 it was -14.56%; on MNK1, 11.59%. Also, the “Percentage inhibition” value on NEK1 is given as -7.46%; at PKN1 it was 11.29%; on SRPK2 it was 0.69%; on TAOK2, 5.31%; at TNIK, -0.81%.
For the compound `COc1ccc(F)cc1C(=O)NCc1ccc(-c2nn([C@@H](C)C(F)(F)F)c(N)c2C(N)=O)cc1` [pirtobrutinib], the “Percentage inhibition” value was -0.47% at ARG; 13.63% on FRK; 0.45% on JAK2; -7.24% on CaMK2δ; 2.97% on HIPK1; 2.15% at MNK1. The “Percentage inhibition” value at NEK1 was -2.24%; on PKN1 it was 15.81%; on SRPK2, -2.34%; on TAOK2, 1.74%; on TNIK it was -3.38%.
With `O=C(c1ccc(Oc2ccccc2)cc1Cl)c1c[nH]c2ncnc(N[C@@H]3CC[C@@H](CO)OC3)c12` [nemtabrutinib], the “Percentage inhibition” value at ARG stood at 62.68%; at FRK, 98.79%; at JAK2, 14.34%; on CaMK2δ it was 14.10%; at HIPK1, 2.16%; at MNK1, 7.10%. Further, the “Percentage inhibition” value is recorded as -1.75% on NEK1; 5.57% on PKN1; 1.38% at SRPK2; 41.31% at TAOK2; 85.96% at TNIK.
For the compound `C=CC(=O)N1CCC[C@@H](n2nc(-c3ccc(Oc4ccccc4)cc3)c3c(N)ncnc32)C1` [ibrutinib], the “Percentage inhibition” value on ARG is on record as 6.86%; on FRK it was 99.53%; on JAK2 it was 0.41%; on CaMK2δ, -0.83%; at HIPK1 it was 4.26%; on MNK1 it was 14.52%. Moreover, the “Percentage inhibition” value was 3.73% on NEK1; 8.58% on PKN1; 3.01% on SRPK2; 5.25% on TAOK2; -1.62% at TNIK.

The values above are taken from paper PMC12586182 (Frontiers in Oncology, 2025).
